Data as given in ChEMBL document CHEMBL1201862, “PubChem BioAssay data set” (2004).
The source made the active and inactive calls.

Tests used:
[1] = viability loss in HeLa cells – cytotoxicity control for MgcRacGAP inhibitor project, dose response (AID 624300); assay type: functional
Nonstructural protein 1 = Nonstructural protein 1 (Influenza A virus, UniProt Q194T2); assay type: functional, Influenza A virus (A/California/07/2009(H1N1))
[2] = target: Dual specificity tyrosine-phosphorylation-regulated kinase 1A (Rattus norvegicus, UniProt Q63470); assay type: biochemical, Homo sapiens
Phospholipase A2 = Phospholipase A2 (Homo sapiens, UniProt P04054); assay type: functional;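 note: confirmatory dose-response counterscreen on phospholipase A2, testing hits that came from an ultra-high-throughput screen for ATG4B inhibitors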
[3] = target: T1, DNA repair protein RAD52 homolog (Homo sapiens, UniProt P43351); assay type: functional, biochemical
T1 sequence (P43351 whole entry): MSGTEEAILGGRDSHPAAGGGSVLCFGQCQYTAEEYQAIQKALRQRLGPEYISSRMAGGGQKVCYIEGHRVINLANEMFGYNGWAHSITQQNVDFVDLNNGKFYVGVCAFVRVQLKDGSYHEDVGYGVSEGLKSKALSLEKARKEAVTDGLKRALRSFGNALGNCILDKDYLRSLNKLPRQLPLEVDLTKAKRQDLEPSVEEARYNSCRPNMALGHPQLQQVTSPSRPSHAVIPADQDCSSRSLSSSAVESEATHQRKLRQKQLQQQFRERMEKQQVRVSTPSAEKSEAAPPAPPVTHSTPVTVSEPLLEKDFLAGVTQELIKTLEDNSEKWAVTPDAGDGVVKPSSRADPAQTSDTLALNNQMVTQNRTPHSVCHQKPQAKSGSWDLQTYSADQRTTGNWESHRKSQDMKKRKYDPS

[4] = viability loss in THP-1 monocytes – THP-1 cells, cytotoxicity control for Vif-APOBEC3G degradation inhibitor project, dose response (AID 1117359); assay type: functional; settings: THP-1
[5] = target: T2, Rac GTPase-activating protein 1 (Homo sapiens, UniProt Q9H0H5); experiment: blockers of MgcRacGAP-driven Rac1 GTP hydrolysis – biochemical, ADP Hunter fluorescence, primary and confirmatory, confirmation (AID 624330); assay type: functional
T2 sequence (Q9H0H5 whole entry): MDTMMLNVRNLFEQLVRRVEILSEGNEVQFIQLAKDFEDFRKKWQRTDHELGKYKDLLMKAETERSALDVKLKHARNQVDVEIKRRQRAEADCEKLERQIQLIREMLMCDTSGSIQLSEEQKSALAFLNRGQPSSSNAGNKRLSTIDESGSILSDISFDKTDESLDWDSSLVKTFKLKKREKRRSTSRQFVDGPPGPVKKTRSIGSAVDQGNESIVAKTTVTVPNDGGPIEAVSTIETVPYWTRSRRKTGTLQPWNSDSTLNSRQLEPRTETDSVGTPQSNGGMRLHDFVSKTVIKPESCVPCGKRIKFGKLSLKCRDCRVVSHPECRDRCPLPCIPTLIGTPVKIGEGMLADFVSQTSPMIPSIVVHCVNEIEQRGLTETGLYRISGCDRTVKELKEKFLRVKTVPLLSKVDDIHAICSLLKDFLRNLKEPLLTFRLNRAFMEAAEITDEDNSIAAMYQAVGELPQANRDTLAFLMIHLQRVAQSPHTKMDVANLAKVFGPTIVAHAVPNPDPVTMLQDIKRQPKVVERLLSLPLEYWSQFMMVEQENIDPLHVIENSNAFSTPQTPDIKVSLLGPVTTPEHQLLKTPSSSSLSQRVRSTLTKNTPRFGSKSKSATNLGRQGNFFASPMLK

[6] = target: Glutathione-S-transferase (Schistosoma japonicum, UniProt Q26513); experiment: GST-antibody interaction or FRET quenching – biochemical, TR-FRET, artefact control for Vif-APOBEC3G degradation inhibitor project, dose response (AID 1117362); assay type: functional
Cysteine protease ATG4B = target: T3, Cysteine protease ATG4B (Homo sapiens, UniProt Q9Y4P1); assay type: functional;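 note: Fluorescence-based dose-response confirmation assay measuring inhibition of ATG4B activity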
T3 sequence (Q9Y4P1 whole entry): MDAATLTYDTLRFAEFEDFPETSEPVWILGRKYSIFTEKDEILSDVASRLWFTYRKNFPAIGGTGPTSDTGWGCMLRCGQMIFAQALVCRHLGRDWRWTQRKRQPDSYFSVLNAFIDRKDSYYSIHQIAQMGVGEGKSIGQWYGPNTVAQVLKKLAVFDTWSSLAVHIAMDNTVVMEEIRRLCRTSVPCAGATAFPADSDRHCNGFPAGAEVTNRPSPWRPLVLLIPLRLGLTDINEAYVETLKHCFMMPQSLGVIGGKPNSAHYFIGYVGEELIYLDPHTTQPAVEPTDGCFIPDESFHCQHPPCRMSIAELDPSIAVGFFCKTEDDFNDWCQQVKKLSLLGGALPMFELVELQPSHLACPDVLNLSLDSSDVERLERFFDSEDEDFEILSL

Troponin, cardiac muscle = Troponin, cardiac muscle (Homo sapiens, UniProt P19429+P45379+P63316); experiment: compounds desensitizing RTF to calcium – biochemical, fluorescence, cardiac regulated thin filaments, triplicate IC50, dose response (AID 504742); assay type: protein-complex assay
[7] = Luminescence Cell-Based Dose Confirmation HTS to Identify Activators of 5'UTR Stem-Loop Driven Alpha-Synuclein mRNA Translation in H4 Neuroglioblastoma Cells. [Related pubchem assays: 1829 (Project Summary), 1814 (Primary HTS)]; assay type: functional
[8] = target: E3 ubiquitin-protein ligase Mdm2/Protein Mdm4 (Homo sapiens, UniProt O15151+Q00987); experiment: disruption of Mdm2/MdmX protein binding – luminescence detection, dose response (AID 504593); assay type: functional
[9] = Luminescence Cell-Based Dose Response HTS to Identify Activators of Luciferase Translation or Activity in H4 […] Cells. [Related pubchem assays: 1829 (Project Summary), 1814 (Primary HTS)]; assay type: functional
H4 = experiment: Luminescence Cell-Based Dose Response HTS to Identify Activators of 5'UTR Stem-Loop Driven Prion Protein mRNA Translation in H4 Neuroglioblastoma Cells. [Related pubchem assays: 1829 (Project Summary), 1814 (Primary HTS)]; assay type: functional; settings: Homo sapiens
[10] = target: T4, Short transient receptor potential channel 4 (Mus musculus, UniProt Q9QUQ5); experiment: potentiation of DAMGO-evoked TRPC4 calcium signal – cell-based, HEK293 TRPC4/mu-opioid, Fluo-4 calcium, EC20 DAMGO, dose response (AID 434941); assay type: functional
T4 sequence (Q9QUQ5 whole entry): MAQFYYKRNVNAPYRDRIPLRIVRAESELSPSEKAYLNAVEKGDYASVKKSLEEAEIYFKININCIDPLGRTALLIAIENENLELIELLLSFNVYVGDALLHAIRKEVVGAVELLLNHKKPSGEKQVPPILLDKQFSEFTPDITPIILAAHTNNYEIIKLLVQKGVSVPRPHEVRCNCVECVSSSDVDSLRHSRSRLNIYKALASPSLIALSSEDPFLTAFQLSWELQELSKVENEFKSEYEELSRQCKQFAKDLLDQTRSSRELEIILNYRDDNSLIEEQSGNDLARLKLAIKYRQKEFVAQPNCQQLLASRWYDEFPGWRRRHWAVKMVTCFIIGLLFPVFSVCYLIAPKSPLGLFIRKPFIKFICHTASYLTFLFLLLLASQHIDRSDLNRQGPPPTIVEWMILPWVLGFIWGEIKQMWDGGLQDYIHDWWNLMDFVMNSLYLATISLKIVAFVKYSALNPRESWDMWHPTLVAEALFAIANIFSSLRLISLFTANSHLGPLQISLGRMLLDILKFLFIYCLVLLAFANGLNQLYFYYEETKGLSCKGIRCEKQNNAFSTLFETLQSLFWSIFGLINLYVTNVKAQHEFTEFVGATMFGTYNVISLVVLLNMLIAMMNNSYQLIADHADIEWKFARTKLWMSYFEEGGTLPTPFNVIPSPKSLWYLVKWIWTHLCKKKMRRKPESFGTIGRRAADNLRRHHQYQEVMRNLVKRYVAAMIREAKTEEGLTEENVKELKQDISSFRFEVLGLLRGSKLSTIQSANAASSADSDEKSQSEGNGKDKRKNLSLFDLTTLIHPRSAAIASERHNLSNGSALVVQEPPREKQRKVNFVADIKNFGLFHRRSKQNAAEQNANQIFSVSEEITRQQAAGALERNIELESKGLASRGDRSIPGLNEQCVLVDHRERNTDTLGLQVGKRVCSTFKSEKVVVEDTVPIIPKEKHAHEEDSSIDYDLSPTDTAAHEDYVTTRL

[11] = target: Delta-type opioid receptor (Homo sapiens, UniProt P41143); experiment: SAR Analysis of Antagonists of the DOR Receptor using an Image-Based Assay - Set 3. [Related pubchem assays (depositor defined):AID1777, AID1785]; assay type: functional;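 note: U2OS cells expressing DOR1 and beta-arrestin GFP stimulated with 100 nM SNC80; imaging of GFP-tagged beta-arrestin moving into spots after receptor activation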
[12] = target: T5, Kappa-type opioid receptor (Homo sapiens, UniProt P41145); experiment: SAR analysis of small molecule antagonists of the kappa opioid receptor via a luminescent beta-arrestin assay - Set 3. [Related pubchem assays (depositor defined):AID1777, AID1778, AID1785, AID1786, AID1966, AID2133, AID2136, AID2285, AID2495]; assay type: functional
[13] = target: T5, Kappa-type opioid receptor; experiment: SAR analysis of small molecule antagonists of the kappa opioid receptor via a luminescent beta-arrestin assay - Set 6. [Related pubchem assays (depositor defined):AID1777, AID1778, AID1785, AID1786, AID1966, AID2133, AID2136, AID2285]; assay type: functional
[14] = target: T5, Kappa-type opioid receptor; experiment: SAR analysis of Antagonists of the Kappa Opioid Receptor (KOR) using an Image-Based Assay - Set 3. [Related pubchem assays (depositor defined):AID1777, AID1785]; assay type: functional
[15] = target: T5, Kappa-type opioid receptor; experiment: SAR analysis of Antagonists of the Kappa Opioid Receptor (KOR) using an Image-Based Assay - Set 4. [Related pubchem assays (depositor defined):AID1777, AID1785]; assay type: functional
Mu-type opioid receptor = Mu-type opioid receptor (Homo sapiens, UniProt P35372); experiment: SAR Analysis of Antagonists of the MOR Receptor using an Image-Based Assay - Set 3. [Related pubchem assays (depositor defined):AID1777, AID1785, AID1786, AID1966, AID2133, AID2136, AID2284, AID2285, AID2420]; assay type: functional
Integrin alpha-4 = Integrin alpha-4 (Homo sapiens, UniProt P13612); experiment: allosteric modulators of alpha4 integrin VLA-4 – cell-based, LIBS antibody binding, flow cytometry, SAR follow-up (AID 488791); assay type: functional
Hexokinase = Hexokinase (Trypanosoma brucei, UniProt Q38C41); experiment: Confirmation assay for inhibitors of Trypanosoma brucei hexokinase 1-Analogue-first series. [Related pubchem assays (depositor defined):AID1430, AID1632, AID2516, AID2560, AID2579, AID2600, AID449725, AID492951]; assay type: functional
[16] = target: Glyceraldehyde-3-phosphate dehydrogenase (Homo sapiens, UniProt P04406)
[17] = target: Alkaline phosphatase, placental type (Homo sapiens, UniProt P05187); experiment: human placental alkaline phosphatase inhibition – biochemical, luminescence, confirmation (AID 1512); assay type: functional
[18] = target: T6, Alkaline phosphatase, tissue-nonspecific isozyme (Homo sapiens, UniProt P05186); experiment: potency against alkaline phosphatase TNAP – biochemical, luminescent, dose response, SAR follow-up (AID 1056)
T6 sequence (P05186 whole entry): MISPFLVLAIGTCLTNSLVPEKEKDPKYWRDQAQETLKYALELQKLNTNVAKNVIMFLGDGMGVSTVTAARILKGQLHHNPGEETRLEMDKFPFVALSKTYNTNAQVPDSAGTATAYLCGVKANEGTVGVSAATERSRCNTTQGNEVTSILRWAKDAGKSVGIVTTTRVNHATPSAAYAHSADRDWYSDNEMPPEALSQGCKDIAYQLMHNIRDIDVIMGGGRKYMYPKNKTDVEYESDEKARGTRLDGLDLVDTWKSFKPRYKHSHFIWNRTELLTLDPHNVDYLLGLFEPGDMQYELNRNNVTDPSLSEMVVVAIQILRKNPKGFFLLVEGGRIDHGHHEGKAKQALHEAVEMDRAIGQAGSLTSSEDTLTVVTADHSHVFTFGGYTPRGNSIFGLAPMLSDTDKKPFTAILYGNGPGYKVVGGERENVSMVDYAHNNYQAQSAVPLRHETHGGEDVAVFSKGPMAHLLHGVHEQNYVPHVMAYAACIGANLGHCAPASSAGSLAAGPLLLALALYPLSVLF

T5 sequence (P41145 whole entry): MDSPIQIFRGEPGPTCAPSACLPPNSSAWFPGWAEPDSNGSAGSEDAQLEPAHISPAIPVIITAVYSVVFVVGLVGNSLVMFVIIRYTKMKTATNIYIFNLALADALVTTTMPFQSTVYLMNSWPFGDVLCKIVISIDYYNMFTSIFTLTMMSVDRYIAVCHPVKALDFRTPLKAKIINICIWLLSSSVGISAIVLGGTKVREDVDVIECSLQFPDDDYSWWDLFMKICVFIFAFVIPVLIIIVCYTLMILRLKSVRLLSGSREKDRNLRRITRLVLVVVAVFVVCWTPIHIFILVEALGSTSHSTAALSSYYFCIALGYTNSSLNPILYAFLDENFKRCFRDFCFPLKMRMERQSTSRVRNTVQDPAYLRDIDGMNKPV
Glyceraldehyde-3-phosphate dehydrogenase, sequence (P04406 whole entry): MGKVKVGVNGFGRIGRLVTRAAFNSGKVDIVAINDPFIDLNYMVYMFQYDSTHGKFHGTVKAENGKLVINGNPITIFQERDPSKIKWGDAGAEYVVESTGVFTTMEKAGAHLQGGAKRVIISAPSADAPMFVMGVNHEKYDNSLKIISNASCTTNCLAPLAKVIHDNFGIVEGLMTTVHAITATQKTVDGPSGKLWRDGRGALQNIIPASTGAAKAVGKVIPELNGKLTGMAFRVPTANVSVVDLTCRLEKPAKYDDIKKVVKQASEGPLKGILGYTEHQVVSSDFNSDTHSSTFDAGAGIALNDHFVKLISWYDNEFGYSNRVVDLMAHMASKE
Integrin alpha-4, sequence (P13612 whole entry): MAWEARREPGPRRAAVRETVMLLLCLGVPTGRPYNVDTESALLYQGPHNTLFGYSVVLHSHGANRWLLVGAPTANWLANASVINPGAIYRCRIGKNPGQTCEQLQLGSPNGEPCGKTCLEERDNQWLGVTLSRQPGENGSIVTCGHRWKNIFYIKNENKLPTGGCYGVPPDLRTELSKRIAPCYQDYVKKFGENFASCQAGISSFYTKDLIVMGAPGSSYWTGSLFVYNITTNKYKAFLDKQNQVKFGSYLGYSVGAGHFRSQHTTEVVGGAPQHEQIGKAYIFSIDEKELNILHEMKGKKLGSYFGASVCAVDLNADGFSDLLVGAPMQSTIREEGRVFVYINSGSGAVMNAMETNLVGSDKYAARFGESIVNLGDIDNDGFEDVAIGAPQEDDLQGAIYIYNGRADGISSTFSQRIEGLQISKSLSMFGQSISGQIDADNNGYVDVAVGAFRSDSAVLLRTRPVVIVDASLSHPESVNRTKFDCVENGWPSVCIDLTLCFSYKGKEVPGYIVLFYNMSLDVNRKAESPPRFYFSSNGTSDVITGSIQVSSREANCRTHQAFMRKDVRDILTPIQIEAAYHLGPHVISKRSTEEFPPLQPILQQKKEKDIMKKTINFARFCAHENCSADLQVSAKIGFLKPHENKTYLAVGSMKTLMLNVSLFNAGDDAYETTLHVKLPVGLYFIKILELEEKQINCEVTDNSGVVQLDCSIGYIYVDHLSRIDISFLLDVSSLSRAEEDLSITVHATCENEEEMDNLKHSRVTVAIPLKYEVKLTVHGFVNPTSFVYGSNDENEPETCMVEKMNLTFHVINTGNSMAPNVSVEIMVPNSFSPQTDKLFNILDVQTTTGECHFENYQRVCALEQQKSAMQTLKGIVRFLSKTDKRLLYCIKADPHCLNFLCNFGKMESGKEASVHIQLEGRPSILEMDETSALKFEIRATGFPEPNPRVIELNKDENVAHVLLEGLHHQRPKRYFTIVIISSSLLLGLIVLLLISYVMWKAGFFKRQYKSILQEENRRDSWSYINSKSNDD
Glutathione-S-transferase, sequence (Q26513 whole entry): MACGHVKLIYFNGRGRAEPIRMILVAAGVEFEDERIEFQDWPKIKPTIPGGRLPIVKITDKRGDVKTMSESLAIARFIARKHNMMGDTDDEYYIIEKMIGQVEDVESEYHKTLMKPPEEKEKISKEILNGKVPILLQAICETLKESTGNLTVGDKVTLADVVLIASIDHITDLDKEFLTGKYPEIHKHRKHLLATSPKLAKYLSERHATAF
Alkaline phosphatase, placental type, sequence (P05187 whole entry): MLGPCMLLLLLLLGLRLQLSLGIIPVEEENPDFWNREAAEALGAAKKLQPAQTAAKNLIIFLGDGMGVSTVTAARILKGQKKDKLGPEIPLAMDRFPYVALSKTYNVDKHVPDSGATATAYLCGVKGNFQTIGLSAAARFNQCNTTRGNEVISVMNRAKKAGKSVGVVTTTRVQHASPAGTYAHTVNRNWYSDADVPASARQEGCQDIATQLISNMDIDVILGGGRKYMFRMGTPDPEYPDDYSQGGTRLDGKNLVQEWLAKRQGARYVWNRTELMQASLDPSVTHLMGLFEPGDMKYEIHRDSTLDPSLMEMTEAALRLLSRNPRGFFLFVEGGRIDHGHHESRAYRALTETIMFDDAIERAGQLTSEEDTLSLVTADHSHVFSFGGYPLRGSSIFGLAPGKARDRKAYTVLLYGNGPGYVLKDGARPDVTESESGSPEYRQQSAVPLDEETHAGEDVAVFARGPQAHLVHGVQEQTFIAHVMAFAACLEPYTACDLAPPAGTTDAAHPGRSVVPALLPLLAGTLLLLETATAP
Hexokinase, sequence (Q38C41 whole entry): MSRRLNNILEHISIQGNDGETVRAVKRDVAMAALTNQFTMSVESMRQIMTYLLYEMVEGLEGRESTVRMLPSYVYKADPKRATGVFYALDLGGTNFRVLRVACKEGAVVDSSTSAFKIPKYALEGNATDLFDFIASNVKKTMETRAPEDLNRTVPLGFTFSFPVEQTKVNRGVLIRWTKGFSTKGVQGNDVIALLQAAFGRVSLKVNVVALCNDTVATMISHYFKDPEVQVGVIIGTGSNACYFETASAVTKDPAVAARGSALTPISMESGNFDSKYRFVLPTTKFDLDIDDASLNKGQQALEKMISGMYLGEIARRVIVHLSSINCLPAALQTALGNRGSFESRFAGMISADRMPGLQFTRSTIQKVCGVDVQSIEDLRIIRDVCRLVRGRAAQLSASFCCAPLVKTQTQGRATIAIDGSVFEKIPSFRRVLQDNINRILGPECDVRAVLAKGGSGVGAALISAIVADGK
Nonstructural protein 1, sequence (Q194T2 whole entry): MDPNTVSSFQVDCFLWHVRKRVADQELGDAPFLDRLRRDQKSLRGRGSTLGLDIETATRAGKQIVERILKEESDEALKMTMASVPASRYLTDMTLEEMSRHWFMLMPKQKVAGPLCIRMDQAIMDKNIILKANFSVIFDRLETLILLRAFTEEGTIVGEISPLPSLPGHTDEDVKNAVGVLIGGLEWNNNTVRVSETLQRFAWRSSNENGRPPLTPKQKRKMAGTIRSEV
Phospholipase A2, sequence (P04054 whole entry): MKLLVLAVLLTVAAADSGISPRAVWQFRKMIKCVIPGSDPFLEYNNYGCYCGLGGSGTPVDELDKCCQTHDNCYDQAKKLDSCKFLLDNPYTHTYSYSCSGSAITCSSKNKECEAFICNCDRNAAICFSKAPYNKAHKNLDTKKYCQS
Delta-type opioid receptor, sequence (P41143 whole entry): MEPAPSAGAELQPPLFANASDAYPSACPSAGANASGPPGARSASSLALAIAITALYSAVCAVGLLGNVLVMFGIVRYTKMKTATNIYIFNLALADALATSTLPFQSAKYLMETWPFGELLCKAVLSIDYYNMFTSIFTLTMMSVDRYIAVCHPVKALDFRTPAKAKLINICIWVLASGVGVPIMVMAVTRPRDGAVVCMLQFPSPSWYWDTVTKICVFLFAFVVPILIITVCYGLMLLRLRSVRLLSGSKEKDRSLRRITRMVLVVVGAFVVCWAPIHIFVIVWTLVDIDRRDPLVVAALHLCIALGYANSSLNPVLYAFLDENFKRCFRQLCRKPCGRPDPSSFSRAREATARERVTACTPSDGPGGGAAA
Mu-type opioid receptor, sequence (P35372 whole entry): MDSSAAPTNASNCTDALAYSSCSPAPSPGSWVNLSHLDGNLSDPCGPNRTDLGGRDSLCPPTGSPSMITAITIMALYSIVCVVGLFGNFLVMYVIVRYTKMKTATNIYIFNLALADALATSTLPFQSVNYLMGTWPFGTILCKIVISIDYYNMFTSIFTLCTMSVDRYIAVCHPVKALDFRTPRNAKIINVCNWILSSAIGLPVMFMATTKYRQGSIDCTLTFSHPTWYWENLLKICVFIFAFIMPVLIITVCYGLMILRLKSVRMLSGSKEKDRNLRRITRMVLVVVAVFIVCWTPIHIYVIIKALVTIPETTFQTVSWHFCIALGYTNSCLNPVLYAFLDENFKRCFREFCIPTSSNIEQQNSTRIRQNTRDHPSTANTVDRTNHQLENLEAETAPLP

## N=C(N)c1ccc(/N=N/c2c(O)ccc3c2[nH]c2ccccc23)cc1
[1]
  CC50: 67.4 µM (active)
Nonstructural protein 1
  IC50: 6.65 µM (active)
[2]
  AC50: 1.31 µM (active)
Phospholipase A2
  IC50: 9.6 µM (active)
[3]
  AC50: 2.15 µM (active)
[4]
  CC50: 12.5 µM (active)
[5]
  IC50: 12.7 µM (active)
[6]
  IC50: 2.48 µM (active)
Cysteine protease ATG4B
  IC50: 5.61 µM (active)
Troponin, cardiac muscle
  IC50: 8.6 µM (active)

## CC1(C)C(=O)Nc2ccccc2N1C(=O)Cn1ncc(Cl)c(Cl)c1=O
[7]
  EC50: > 60 µM (not active)
[8]
  IC50: 5.11 µM (active)
[9]
  EC50: > 120 µM (not active)
H4
  EC50: > 120 µM (not active)

## Cc1cc(-c2ccc(C)c(S(=O)(=O)N3CCN(c4ccccn4)CC3)c2)on1
[10]
  EC50: 4.22 µM (active)

## O=C(Cn1c(=O)c2cccn2c2cccnc21)NCCCN1CCN(c2ccccc2)CC1
[11]
  IC50: > 32 µM (inactive)
[12]
  IC50: 1.17 µM (active)
[13]
  IC50: > 20 µM (inactive)
[14]
  IC50: 12.7 µM (inactive)
[15]
  IC50: > 32 µM (inactive)
Mu-type opioid receptor
  IC50: > 32 µM (inactive)

## c1ccc2c(-c3ccc(OCCN4CCCC4)cc3)c(-c3ccsc3)sc2c1
Integrin alpha-4
  EC50: > 49.4 µM (inactive)

## CCCCCC(=O)Nc1cc(Cl)ccc1C(=O)O
Hexokinase
  IC50: > 25 µM (inactive)

## NNC(=O)c1cc(-c2ccc(Cl)cc2Cl)n[nH]1
[16]
  IC50: > 100 µM (not active)
[17]
  IC50: > 100 µM (inactive)
[18]
  IC50: 0.0684 µM (active)
